The results in this text go back to ChEMBL document CHEMBL1127828, “The discovery of an unusually selective and novel cocaine analog: difluoropine. Synthesis and inhibition of binding at cocaine recognition sites” (J Med Chem, 1994).

Structures are written as SMILES.

In the assay the target is Sodium-dependent serotonin transporter (Homo sapiens, UniProt P31645). Nature of the assay: Binding affinity of [3H]citalopram for serotonin transporter in monkey. Details: species or system Cercopithecidae.
Chain of Sodium-dependent serotonin transporter (P31645 whole entry): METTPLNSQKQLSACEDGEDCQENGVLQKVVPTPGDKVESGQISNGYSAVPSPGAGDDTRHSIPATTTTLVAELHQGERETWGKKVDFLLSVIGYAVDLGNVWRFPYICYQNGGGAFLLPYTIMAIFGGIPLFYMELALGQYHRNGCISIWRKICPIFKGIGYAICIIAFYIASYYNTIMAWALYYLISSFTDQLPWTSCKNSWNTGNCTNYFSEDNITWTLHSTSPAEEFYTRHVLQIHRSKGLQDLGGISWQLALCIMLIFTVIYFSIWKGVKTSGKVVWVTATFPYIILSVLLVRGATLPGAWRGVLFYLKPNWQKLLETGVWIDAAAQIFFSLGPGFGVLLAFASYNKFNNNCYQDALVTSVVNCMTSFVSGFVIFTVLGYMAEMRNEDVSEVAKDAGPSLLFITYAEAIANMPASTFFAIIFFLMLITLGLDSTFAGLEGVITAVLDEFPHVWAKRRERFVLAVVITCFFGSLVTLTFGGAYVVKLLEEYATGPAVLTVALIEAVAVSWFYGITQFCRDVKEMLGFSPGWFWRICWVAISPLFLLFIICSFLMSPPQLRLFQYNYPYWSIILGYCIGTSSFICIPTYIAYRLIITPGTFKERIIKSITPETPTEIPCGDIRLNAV
As to `COC(=O)C1C2CC[C@H](C[C@@H]1c1ccc(I)cc1)N2C` (some centres undefined), the IC50 – broadly, the concentration needed to halve the response being measured – stood at 0.00253 µM.

For `COC(=O)[C@@H]1C2CCC(C[C@@H]1OC(c1ccc(F)cc1)c1ccc(F)cc1)N2C` (some centres undefined), the IC50 is 3.53 µM. As to `COC(=O)[C@@H]1[C@H]2CCC(C[C@H]1OC(c1ccc(F)cc1)c1ccc(F)cc1)N2C`, the concentration for half-maximal inhibition (IC50) came out at 1.83 µM. The molecule `COC(=O)C1C2CC[C@H](C[C@@H]1OC(c1ccc(F)cc1)c1ccc(F)cc1)N2C` (stereo in doubt; R-7) returned an IC50 of 5.5 µM. In the case of `COC(=O)C1C2CC[C@H](C[C@H]1OC(c1ccc(F)cc1)c1ccc(F)cc1)N2C` (stereo in doubt; R-8) it was 1.98 µM; in that of `COC(=O)C1C2CC[C@H](C[C@@H]1OC(c1ccc(F)cc1)c1ccc(F)cc1)N2C` (stereo in doubt; R-9), 1.46 µM.

`COC(=O)C1C2CC[C@H](C[C@H]1OC(c1ccc(F)cc1)c1ccc(F)cc1)N2C` (stereo in doubt; R-10): the IC50 was 9.15 µM. On to `COC(=O)C1C2CC[C@H](C[C@H]1OC(c1ccc(F)cc1)c1ccc(F)cc1)N2C` (stereo in doubt; S-7), for which the IC50 was 4.09 µM. The molecule `COC(=O)C1C2CC[C@H](C[C@H]1OC(c1ccc(F)cc1)c1ccc(F)cc1)N2C` (stereo in doubt; S-10) showed an IC50 of 4.93 µM.
